Reference: patent US11571454B2, “Anticancer peptides that synergistically enhance chemotherapeutic potency” (The Penn State Research Foundation, priority 2017, dated 2023)
Marks after values point to notes of the source that are not given here.

Key:
[1] = system: human lung epithelium (NL20); details: read-out: Healthy (IC50, μM) NL20; 48 hours treatment, MTT
MS S. aureus = details: 24 hours, Gram Positive
OVCAR-3 cells [2] = details: read-out: IC50, nuclei-counting assay; OVCAR-3, Hoechst nuclei counting
[3] = system: T24 (urinary bladder transitional cell carcinoma) cells; assay: MTT cytotoxicity assay, T24
OVCAR-3 cells [4] = assay: TMRE-staining flow cytometry (mitochondrial transmembrane potential); format: cell-based, human; details: 48 hour incubation, varying concentrations
Method: (5 μM). Cells were incubated for 30 min. with 200 nM TMRE, washed twice with PBS, and analyzed for fluorescence by flow cytometry on a BD […] (BD Biosciences, Franklin Lakes, N.J.).

[5] = system: non-cancerous cell lines HUVEC and NL20; assay: MTT cytotoxicity, non-cancerous control cell lines; format: cell-based, human
Method: (§1) All cells were cultured using standard culture conditions at 37° C., 5% CO2, and 95% humidity. A549 (CCL-185), OVCAR-3 (HTB-161), T24 (HTB-4), and NCI/ADR-RES were cultured in RPMI-1640 supplemented with 10% v/v fetal bovine serum (FBS), 2 mM L-glutamine (L-Gln), 10,000 units penicillin/mL, 10 mg/mL streptomycin, and 25 μg/mL amphotericin B. HUVEC (PCS-100-010) cells were cultured in Vascular Cell Basal Media (PCS-100-030) supplemented with an Endothelial Cell Growth Kit-VEGF (PCS-100-041) and 10 μg/mL gentamycin in culture flasks coated with 0.1% gelatin by incubating at 37° C. for 15 min. NL20 (CRL-2503) cells were cultured in Ham's F12 supplemented with 1.5 g/L sodium bicarbonate, 2.7 g/L glucose, 2.0 mM L-glutamine, 0.1 mM nonessential amino acids, 0.005 mg/ml insulin, 10 ng/ml epidermal growth factor, 0.001 mg/ml transferrin, 500 ng/ml hydrocortisone and 4% fetal bovine serum, as advised by American Type Culture Collection (ATCC).
(§2) Viability was calculated by comparing to an untreated control.
(§3) All experiments were performed with n>6.

[6] = system: A549 (lung carcinoma) cells; assay: MTT cytotoxicity assay, A549; format: cell-based, human
Method: as §1, §2, §3
Cell viability experiments were completed n>6 in two independent experiments and analyzed using GraphPad Prism 8 to fit curves and calculate IC50 values using inhibitor vs. normalized response non-linear regression model. IC50 values are reported as mean values±standard deviation. […] Pore size frequency distribution was completed by ImageJ FIJI on 4 independent cells and n=30 pores from SEM images. UV-Vis OD600 and CD spectra are means of 5 and 3 replicates, respectively and reported as mean±standard deviation. Individual UV-Vis and CD spectra, as well as fluorescent confocal and TEM micrographs, shown are representative plots from three individual experiments. CD data is with a variance in ellipticity of 0.2 millidegrees at each wavelength. Relative fluorescence data calculated from fluorescent confocal images represents the average of 10 independent measurements±standard deviation. For spheroid volume analysis, a Kruskal-Wallis test and Dunn's multiple comparisons test was performed using GraphPad Prism 8.

B. subtilis (168) = details: 24 hours, Gram Positive
[7] = system: OVCAR-3 ovarian carcinoma cells
[8] = Liposome disruption (OD600), cancer membrane model; details: OD600 and visual flocculates
Method: Liposomes were prepared by extrusion techniques according to previous methods. Briefly, all liposomes were prepared in 2×concentration (5 mM). Healthy and cancer liposomal mimicking membranes were prepared with 72:23:[…] phosphatidylcholine (POPC):phosphatidylethanolamine (DOPE):phosphatidylserine (POPS) lipids, respectively. The lipids dissolved in chloroform were mixed in proper molar proportions before being evaporated under a stream of argon. The lipid film was then dried completely by lyophilization overnight. […] The extruded liposomes were then dialyzed in 3500 MWCO dialysis cassettes against water. Parallel optical density experiments were conducted measuring the absorbance at 600 nm (OD600) to track the kinetics and specificity of membrane disruption. Measurements were taken every 30 seconds for the first 10 min., followed by measurements every minute until 15 min.

P. aeruginosa = details: 24 hours, Gram Negative
[9] = system: cleaved caspase 3 in OVCAR-3 cells; assay: Western blot of cleaved caspase 3; format: cell-based, human; details: 1× and 2× IC50; activation at 48 hours
Method: For western blots, OVCAR-3 cells were first seeded at 2.5×10^5 cells/well in a 6 well plate and allowed to adhere overnight. Cells were then treated in 5% FBS media with 1×IC50 and 2×IC50, with untreated controls of media alone. Following 2 or 48 hours of treatment, the whole-cell protein lysates were prepared in RIPA buffer (50 mM Tris.NaOH at pH 7.4, 150 mM NaCl, 1% IGEPAL-CA630 [octylphenoxy poly(ethyleneoxy)ethanol], 0.5% sodium deoxycholate, 0.1% SDS, 2 mM EDTA, protease/phosphatase inhibitors) by first scraping the bottom of the well and subsequently briefly sonicated. The lysates were centrifuged to clear cellular debris, separated by 12% SDS-PAGE, and transferred to a 0.2 μm Nitrocellulose Membrane using the Bio-Rad Trans-Blot Turbo transfer machine (Bio-Rad, Hercules, Calif., USA) according to the manufacturer's protocols. The blot was incubated in 5% Immunoanalytical Grade Non-fat Dry Milk for 1 hour, followed by incubation with antibodies against cleaved caspase-3 (1:1000) or actin (1:1000) at 4° C. for 16 hours. The blots were then incubated with 1:2000 dilution in 1×BSA of anti-mouse or anti-rabbit antibodies for 1 hour before washing with TBST three times for 15 min. and developing using Pierce ECL system according to the manufacturer's protocol.

H-KRWHWWRRHWVVW-NH2 [MAD1]
IC50 [1]: 76.9 µM
MIC (μM) MS S. aureus (MS S. aureus): >80^a μM
IC50 (OVCAR-3 cells [2]): 3.3 µM
IC50 ([3]; read-out: Cancerous (IC50, μM) T24, 48 hours treatment, MTT): > 100 µM
cytotoxic activity towards T24 ([3]; result in words): inactive
mitochondrial integrity (TMRE fluorescence) (OVCAR-3 cells [4]): generally unchanged
toxicity towards non-cancerous control cell lines [5]: well tolerated
IC50 ([6]; 48 hours treatment, MTT, read-out: Cancerous (IC50, μM) A549): 36.2 µM
Therapeutic Index A549 ([6]; IC50-HUVEC/IC50-A549): 2.8
cytotoxic activity against A549 ([6]; result in words): moderate activity
MIC (μM) B. subtilis (168) (B. subtilis (168)): 0.2 µM
Therapeutic Index OVCAR-3 ([7]; IC50-HUVEC/IC50-OVCAR-3): 7
IC50 ([7]; read-out: Cancerous (IC50, μM) OVCAR-3, 48 hours treatment, MTT): 14.2 µM
disruption/lysis of cancer membrane liposomes [8]: significant membrane destabilization and subsequent lysis
MIC (μM) P. aeruginosa (P. aeruginosa): 50^a μM
cleaved caspase 3 (western blot) [9]: presence of cleaved caspase 3
